In brackets after ≈: the same amount, converted by molar mass.
What was measured:
Format in all cases: cell-based
[1] = system: Aspergillus flavus; test: MIC measurement, YAG medium; details: MIC banded into grades, lowest concentration inhibiting growth by >70%; for MIC: Aspergillus flavus
Outline: (§1)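 Spores from 5-day Sabouraud agar cultures were diluted in YAG medium (1% glucose, 1% ammonium chloride, 0.5% yeast extract) to a final inoculum of 1-2×10^4 cfu/mL, with drug at 50-0.05 mg/L. Plates were incubated 24 h at 35° C and read as OD 485 nm. MIC is the lowest concentration giving >70% inhibition versus drug-free control, in mg/L.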

[2] = system: Aspergillus terreus AT49; test: MIC measurement, YAG medium; details: MIC banded into grades; for MIC: Aspergillus terreus, strain AT49, read-out: MIC A. terreus 49
Outline: as §1

[3] = system: Aspergillus fumigatus; test: MIC measurement, YAG medium; details: YAG medium, MIC banded into grades, strain AF293; for MIC: Aspergillus fumigatus, read-out: MIC A. fumigatus
Outline: as §1

[4] = system: Aspergillus niger; test: MIC measurement, YAG medium; details: MIC banded into grades; for MIC: Aspergillus niger
Outline: as §1

[5] = system: Aspergillus terreus; test: MIC measurement, YAG medium; details: MIC banded into grades, strain not named in head (AT4); for MIC: Aspergillus terreus
Outline: as §1

[6] = system: Aspergillus fumigatus AF210; test: MIC measurement, YAG medium; details: MIC banded into grades; for MIC: Aspergillus fumigatus, strain AF210, read-out: MIC A. fumigatus 210
Outline: as §1

[7] = system: Fusarium solani; test: 24 hr MIC measurement, RPMI medium; details: Fusarium solani FS2, MIC banded into grades
Experimental: Between 1 and 5 mgs of compound were accurately weighed out into a sterile Eppendorf tube. The compound was dissolved in DMSO to give a solution containing […]. Tubes were stored at −20° C. until required.
On the day of testing thawed solutions were vortex mixed to ensure homogeneity. 30 μL of solution was removed and added to 570 μL of sterile water in a separate sterile Eppendorf. The thoroughly mixed solution was used to prepare a series of doubling dilutions in water, in a deep well plate. Thirteen replicate plates were prepared using a Minitrak by aspirating 20 μL from each well into eleven clear polystyrene 96 well plates.
Spores of Aspergillus spp. […]
This produced MIC plates with a drug range 50-0.05 mg/L and organism inocula of 1-2×10^4 cfu/mL for Aspergillus spp. and other filamentous fungi and 1-2×10^3 cfu/mL for yeasts. […] Growth was assessed by monitoring the optical density at 485 nm for each well. […] MICs are recorded as mg/L. Other growth media can be used for susceptibility testing, and the activity of the described compounds can also be assessed in a medium comprising 1% glucose, 1% ammonium chloride and 0.5% yeast extract (YAG medium). […] Growth was assessed by monitoring the optical density at 485 nm for each well. […]

C=C1CCN(c2ccc(NC(=O)C(=O)c3c(-c4ccccc4)cc4ccccn34)cc2)CC1 [Example 3, N-[4-(4-methylene-piperidin-1-yl)-phenyl]-2-oxo-2-(2-phenyl-indolizin-3yl) acetamide]
MIC [1]: < 1 µg/mL | MIC [2]: < 1 µg/mL | MIC [3]: < 1 µg/mL | MIC [4]: < 1 µg/mL | MIC [5]: < 1 µg/mL | MIC [6]: < 1 µg/mL | MIC [7]: < 1 µg/mL

C[C@@H]1CN(C2CCN(c3ccc(NC(=O)C(=O)c4c(-c5ccccc5)cc5ccccn45)cc3)CC2)C[C@H](C)O1 [Example 24, N-{4-[4-(2,6-Dimethyl-morpholin-4-yl)-piperidin-1-yl]-phenyl}-2-oxo-2-(2-phenyl-indolizin-3-yl)-acetamide]
MIC [1]: < 1 µg/mL | MIC [2]: < 1 µg/mL | MIC [3]: < 1 µg/mL | MIC [4]: < 1 µg/mL | MIC [5]: < 1 µg/mL | MIC [6]: < 1 µg/mL | MIC [7]: 1 to 10 µg/mL (≈ 1.86 to 18.6 µM)

O=C(Nc1ccc(N2CCN(Cc3cccs3)CC2)cc1)C(=O)c1c(-c2ccccc2)cc2ccccn12 [Example 33, 2-Oxo-2-(2-phenylindolizin-3-yl)-N-[4-(4-thiophen-2-ylmethylpiperazin-1-yl)phenyl] acetamide]
MIC [1]: < 1 µg/mL | MIC [2]: < 1 µg/mL | MIC [3]: < 1 µg/mL | MIC [4]: < 1 µg/mL | MIC [5]: < 1 µg/mL | MIC [6]: < 1 µg/mL

O=C(Nc1ccc(N2CCN(Cc3ccco3)CC2)nc1)C(=O)c1c(-c2ccccc2)cc2ccccn12 [Example 34]
MIC [1]: < 1 µg/mL | MIC [2]: < 1 µg/mL | MIC [3]: < 1 µg/mL | MIC [4]: < 1 µg/mL | MIC [5]: < 1 µg/mL | MIC [6]: < 1 µg/mL

Cc1ccccc1-c1cc2ccccn2c1C(=O)C(=O)Nc1ccc(N2CCN(Cc3ccco3)CC2)cn1 [Example 35, N-[5-(2-Furan-2-yl-methyl-piperazin-yl)-peridin-2-yl]-2-oxo-2-(2-o-tolyl-indolizin-3-yl)-acetamide]
MIC A. flavus [1]: 3 (A grade of 3 represents an MIC of less than 1 mg/L) | MIC A. terreus 49 ([2]; strain AT49): 3 (A grade of 3 represents an MIC of less than 1 mg/L) | MIC A. fumigatus [3]: 3 (A grade of 3 represents an MIC of less than 1 mg/L) | MIC A. niger [4]: 3 (A grade of 3 represents an MIC of less than 1 mg/L) | MIC A. terreus [5]: 3 (A grade of 3 represents an MIC of less than 1 mg/L) | MIC A. fumigatus 210 ([6]; strain AF210): 3 (A grade of 3 represents an MIC of less than 1 mg/L)

O=C(Nc1ccc(N2CCN(CCc3ccccn3)CC2)cc1)C(=O)c1c(-c2ccccc2)cc2ccccn12 [Example 36, 2-Oxo-2-(2-phenyl-indolizin-3-yl)-N-{4-[4-(2-pyridin-yl-ethyl)-perazin-1-yl]-phenyl}-acetamide]
MIC [1]: < 1 µg/mL | MIC [2]: < 1 µg/mL | MIC [3]: < 1 µg/mL | MIC [4]: < 1 µg/mL | MIC [5]: < 1 µg/mL | MIC [6]: < 1 µg/mL

O=C(Nc1ccc(N2CCN(c3ccccn3)CC2)cc1)C(=O)c1c(-c2ccccc2)cc2ccccn12 [Example 41, 2-Oxo-2-(2-phenyl-indolizin-3yl)-N-[4-(4-pyridin-2-yl-piperizin-1-yl)-phenyl]-acetamide]
MIC [1]: < 1 µg/mL | MIC [2]: < 1 µg/mL | MIC [3]: < 1 µg/mL | MIC [4]: < 1 µg/mL | MIC [5]: < 1 µg/mL | MIC [6]: < 1 µg/mL

O=C(Nc1ccc(N2CCN(c3ccccn3)CC2)cc1)C(=O)c1c(-c2ccccc2)cc2ccc(F)cn12 [Example 42, 2-(6-Fluoro-2-phenyl-indolizin-3-yl)-2-oxo-N-[4-(4-pyridin-2-yl-piperazin-1-yl)phenyl] acetamide]
MIC [1]: < 1 µg/mL | MIC [2]: < 1 µg/mL | MIC [3]: < 1 µg/mL | MIC [4]: < 1 µg/mL | MIC [5]: < 1 µg/mL | MIC [6]: < 1 µg/mL

Cc1cc(N2CCN(c3ccc(NC(=O)C(=O)c4c(-c5ccccc5)cc5ccccn45)cc3)CC2)nc(C)n1 [Example 45]
MIC [1]: < 1 µg/mL | MIC [2]: < 1 µg/mL | MIC [3]: < 1 µg/mL | MIC [4]: 1 to 10 µg/mL (≈ 1.88 to 18.8 µM) | MIC [5]: < 1 µg/mL | MIC [6]: < 1 µg/mL

Cc1cc(C)nc(N(C)CCCc2ccc(NC(=O)C(=O)c3c(-c4ccccc4)cc4ccccn34)cc2)c1 [Example 70, N-(4-{3-[(4,6-Dimethyl-pyridin-2-yl)-methyl-amino]-propyl}-phenyl)-2-oxo-2-(2-phenyl-indolizin-3-yl)-acetamide]
MIC [1]: < 1 µg/mL | MIC [2]: < 1 µg/mL | MIC [3]: < 1 µg/mL | MIC [4]: < 1 µg/mL | MIC [5]: < 1 µg/mL | MIC [6]: < 1 µg/mL

O=C(Nc1ccc(N2CCN(c3ccc(CN4CCOCC4)cn3)CC2)cc1)C(=O)c1c(-c2ccccc2)cc2ccccn12 [Example 77, N-{4-[4-(5-morpholin-4-yl-methyl-pyridin-2-yl)-piperazin-1-yl]-phenyl}-2-oxo-2-(2-phenyl-indolizin-3-yl)-acetamide]
MIC [1]: < 1 µg/mL | MIC [2]: < 1 µg/mL | MIC [3]: < 1 µg/mL | MIC [4]: < 1 µg/mL | MIC [5]: < 1 µg/mL | MIC [6]: < 1 µg/mL
